In paper PMC12567082, “Silver(I) Complexes Bearing S-Alkyl Thiosalicylic Acid Derivatives: DNA/BSA Binding and Antitumor Activity In Vitro and In Vivo” (Pharmaceutics, 2025):

Assays:
[1] = tested on: CT-DNA; assay: EB–CT-DNA fluorescence quenching; type: binding, calf; settings: EB–CT-DNA 8.52 × 10^−5 M, PBS pH 7.4
Procedure: All samples were prepared in phosphate-buffered saline (PBS, pH 7.4). Stern–Volmer Equation (2) was used to interpret the fluorescence quenching data.

[2] = tested on: human breast cancer (MDA-MB-468); assay: MTT assay MDA-MB-468; type: cell-based
Procedure: (§1) Mouse breast cancer (4T1), human breast cancer (MDA-MB-468), mouse colon cancer (CT26), human colon cancer (HCT-116), mouse lung cancer (LLC1), human lung cancer (A549), mouse mesenchymal stem cells (mMSC), and human fibroblast cell lines (MRC-5) were used in this study and were consistently cultured in complete Dulbecco’s Modified Eagle Medium (DMEM) (Sigma-Aldrich, St. Louis, MO, USA) in incubator (5% CO2) under standard conditions. Complete DMEM was Dulbecco’s Modified Eagle Medium supplemented with 10% fetal bovine serum (FBS), 1 mmol/L penicillin–streptomycin, 1 mmol/L mixed nonessential amino acids, and 2 mmol/L L-glutamine (Sigma-Aldrich, St. Louis, MO, USA). All cancer cell lines and MRC-5 cell line were obtained from American Type Culture Collection (ATCC, Manassas, VA, USA), but mMSC was manufactured by Gibco (Middlesex County, MA, USA).
(§2) In 96-well microplates, we seeded cancer and non-cancer cells, more exactly 5 × 10^3 cells per well in 100 μL of complete DMEM (Sigma-Aldrich, St. Louis, MO, USA). […] Tested concentration range for all metal-based substances was 3.9–500 μM. After incubation with MTT solution (5 mg/mL; pH 7.2) for 4 h, optical density was determined using Zenyth 3100 microplate multimode detector (Salzburg, Austria). All experiments were performed three times, each in triplicate, and the IC50 values as well as selectivity indexes (IC50 for mMSC or MRC-5/IC50 for mouse or human cancer cells) were calculated.

[3] = tested on: mouse lung cancer (LLC1); assay: MTT assay LLC1; type: cell-based
Procedure: as §1, §2

[4] = tested on: mouse mesenchymal stem cells (mMSC); assay: MTT assay mMSC; type: cell-based; settings: 48 h
Procedure: as §1, §2

[5] = tested on: human fibroblast cell lines (MRC-5); assay: MTT assay MRC-5; type: cell-based
Procedure: as §1, §2

[6] = tested on: 4T1 mammary tumors; assay: Breast cancer development in vivo (orthotopic 4T1); parameters: species or system BALB/C female mice; settings: five single doses every third day, after day 18
Procedure: (§3) Ethics Committee of the Faculty of Medical Sciences of the University of Kragujevac, Serbia, approved all experiments (01-5301/11). ARRIVE guidelines and EU Directive 2010/63/EU for animal experiments were followed. Experimental animals, BALB/C female mice (8–10 weeks old), were housed under standard conditions (temperature-controlled environment, a 12 h light–dark cycle, fed ad libitum, and observed daily) throughout whole duration of experiment. Animals were inoculated with 4T1 cells (3 × 10^4) into the fourth mammary fat pad as previously described. Animals were randomly assigned to experimental or control groups, and after palpable tumors were detected, the pharmacological treatments were started. Female BALB/C mice intraperitoneally received either C3 (3 mg/kg), C3 (6 mg/kg), CDDP (6 mg/kg), or vehicle in distilled water with 0.05% DMSO (Sigma-Aldrich, St. Louis, MO, USA) (untreated group) in five single doses every third day (8 animals per group). Using electronic calipers (Moore and Wright, Sheffield, UK), the sizes of primary 4T1 mammary tumors were morphometrically evaluated. On the 30th day of experiment, animals were sacrificed, blood was collected (for determination of serum levels of ALT, AST, urea, and creatinine), and tissue sections (liver and kidney) were stained with H&E for further analysis. Liver or kidney sections were analyzed by two observers, and the injury levels were determined as previously reported.

[7] = tested on: BALB/C female mice; assay: In vivo toxicity (serum biochemistry, liver and kidney histology); settings: day 30
Procedure: as §3

[8] = tested on: 4T1 cells; assay: Colony formation assay; type: cell-based, mouse; settings: 0.5 µM, 14 days
Procedure: Cancer 4T1 cells were seeded in a six-well plate (500 cells per well) and incubated with C3 (0.5 µM) or DMEM only for 14 days. After fixation, the colonies were stained using crystal violet.

[9] = tested on: 4T1 cells; assay: Flow cytometry of apoptosis and proliferation markers; type: cell-based, mouse; settings: 0.5 µM, 24 h, vs untreated
Procedure: Flow cytometry was performed on 4T1 cells treated with 0.5 µM of C3 for 24 h or untreated cells. After treatment, cells were incubated with antibodies specific for Bax (Abcam Cambridge, Cambridge, UK), Bcl-2 (Abcam Cambridge, UK), BclXL (Thermo Fisher Scientific, Waltham, MA, USA), MCL-1 (Thermo Fisher Scientific, Waltham, MA, USA) caspase 3 (Abcam Cambridge, UK), Ki-67 (eBioscience, San Diego, CA, USA), cyclin D3 (Abcam Cambridge, UK), p21 (Abcam Cambridge, UK), p16 (Abcam Cambridge, UK), and p27 (Abcam Cambridge, UK) and secondary antibodies as previously described. FACSCalibur Flow Cytometer (BD Biosciences, San Jose, CA, USA) was used for flow cytometry, and the data were analyzed using FlowJo (version 10.7.2; Tree Star Inc. Ashland, OR, USA).

## CCCSc1ccccc1C(=O)[O][Ag].CCCSc1ccccc1C(=O)[O][Ag] [C3, [Ag2(S-propyl-thiosal)2]]
[1]
  Ksv EB (Stern–Volmer constant): (1.4 ± 0.1) × 10^4 M^−1
[2]; MDA-MB-468, 24 h
  IC50: 15.5 ± 1.21 µM
  Selectivity Index (IC50 mMSC or MRC-5/ IC50 Cancer Cell): 2.46
[2]; MDA-MB-468, 48 h
  IC50: 8.76 ± 1.24 µM
  Selectivity Index (IC50 mMSC or MRC-5/ IC50 Cancer Cell): 4.95
[3]; LLC1, 24 h
  IC50: 41.6 ± 1.27 µM
[3]; LLC1, 48 h
  IC50: 20.3 ± 1.18 µM
  Selectivity Index (IC50 mMSC or MRC-5/ IC50 Cancer Cell): 0.21
[4]
  IC50: 4.22 ± 0.33 µM
[5]; MRC-5, 24 h
  IC50: 38.1 ± 1.13 µM
[5]; MRC-5, 48 h
  IC50: 43.3 ± 1.1 µM
[6]; 3 mg/kg i.p.
  tumor growth compared to the untreated group: significantly slower
[6]; 6 mg/kg i.p.
  tumor growth compared to the untreated group: significantly slower
[7]; C3 3 and 6 mg/kg vs CDDP 6 mg/kg
  kidney injury scores compared to CDDP-treated animals: significantly lower
[7]; C3 3 and 6 mg/kg, H&E
  liver injury histological score (Knodel score) vs untreated animals: did not reveal a significant difference
[8]
  4T1 colony formation: almost total inhibition
[9]
  Bax/Bcl-2 ratio: higher
